Test results published in patent US9675595B2, “Synergistic combinations of PI3K- and MEK-inhibitors” (Novartis AG, priority 2011, dated 2017).

Test system: Melanoma cell lines
Assay: Cell line testing, dose matrix, Example 3, melanoma panel
Assay type: cell-based
Settings: melanoma lines with activating NRAS mutation and BRAF mutants
Experimental: The combination of PI3K inhibitor COMPOUND A and MEK inhibitor COMPOUND B, as defined above, was tested across 38 cell lines from three tissue types (7 pancreas, 10 lung, and 21 melanoma). Each combination was tested in a partially-filled “dose matrix” constructed as follows: Each single drug was dispensed into growth media at a top concentration (11 μM for COMPOUND A or 2.7 μM for COMPOUND B), and serially diluted by 3× to yield a 7 point series covering a factor of 729 in concentration. The compounds were then combined at all pairs of the 2nd through the 6th concentrations, and this dose matrix was extended by also combining the top and bottom concentrations with each other. […] In order to identify cytotoxic treatments, we also determined “Day 0” cell populations at the start of drug treatment.
Cell responses at each treatment were measured using simple inhibitions I=1−T/V, where T is the treated well's raw response and V is the median untreated level between replicate wells on the plate. Cytotoxicity measurements were measured using a “Growth Inhibition” GI=1−(T−V0)/[T<V0? […] The “Synergy Score” SLoewe=ΣX,Y lnfX lnfY max(0,Idata) max(0,Idata−ILoewe) was calculated from the differences between the data Idata and the dose-additive surface ILoewe, across all combined concentrations X,Y, and weighted by the measured inhibition and the single agent dilution factors fX, fY. […]

Cc1nc(NC(=O)N2CCC[C@H]2C(N)=O)sc1-c1ccnc(C(C)(C)C(F)(F)F)c1 [COMPOUND A, (S)-pyrrolidine-1,2-dicarboxylic acid 2-amide 1-({4-methyl-5-[2-(2,2,2-trifluoro-1,1-dimethyl-ethyl)-pyridin-4-yl]-thiazol-2-yl}-amide)]
response as a single agent: weak responses
